# Assay results published in publication PMC5559490, “Synthesis of Saccharumoside-B analogue with potential of antiproliferative and pro-apoptotic activities” (Scientific Reports, 2017).
# Experiments:
# Bax = assay: Quantification of Bax (immunometric assay), HL-60; type: cell-based, human; details: HL-60 cells; compared to untreated cells
# Description: Bax protein concentration determination was carried out using the Human Bax Enzyme Immunometric Assay kit (Assay Designs, Ann Arbor, MI, USA). The lysate (sample) preparation was carried out according to the manual. Following centrifugation (16,000 g for 15 min), the cells were resuspended in Modified Cell lysis buffer 4 [0.5 μL/mL of Sigma Protease Inhibitor Cocktail and 1 mM phenylmethylsulfonyl fluoride (PMSF)]. Cell lysate (100 μL) (sample) was added into the wells coated with monoclonal antibody to human Bax-α in triplicate. The plate was tapped gently to mix the contents. The sample was incubated at room temperature on a plate shaker for 1 h. The wells were emptied and washed with 5X wash buffer. After the final wash, the plate was tapped gently on a lint free paper towel to remove any remaining wash buffer. The sample was incubated again for 1 h at room temperature on a plate shaker after the addition of 100 μL of specific antibody (biotinylated monoclonal antibody to Bax-α) into each well. The wells were washed again with 5X wash buffer and emptied. Next, 100 μL of blue conjugate (streptavidin conjugated to horseradish peroxidase) was added into each well. […] The optical densities were read at 450 and 570 nm using an ELISA reader. Bax protein concentration was determined from the standard protein graphic using the optical densities of the samples[32].
# [1] = test system: DU145 prostate cancer cells; assay: MTT antiproliferative assay, DU145; type: cell-based; details: Homo sapiens, DU-145; MTT assay; cancer cell line; mean of three independent experiments ± S.E.M.; read-out: IC50 DU145 Prostate
# caspase-3 = assay: Caspase-3 colorimetric assay, MCF-7; type: cell-based, human; details: MCF-7 cells
# Description: (§1) Caspases-3, -8 and -9 assays were measured according to manufacturer’s instructions using a caspase colorimetric protease kit (Abcam, Cambridge, MA, USA). Cells were treated with compounds for 48 h. The cells were lysed by the addition of 50 μL of chilled cell lysis buffer and incubated on ice for 10 min. The resulting cell lysate was centrifuged for 1 min at 10,000 g, and the supernatant was collected. The cell lysate containing […] of protein was incubated with […] of 4 mmol/L pNA-conjugated substrates (DEVD-pNA, IETD-pNA and LEHD-pNA; substrates for caspase-3, -8 and -9, respectively) at 37 °C for 3 h. The amount of pNA released was measured at 405 nm using an ELISA microplate reader (Bio rad). The caspases activity was expressed as fold difference, [33].
# [2] = test system: HeLa cervical cancer cells; assay: MTT antiproliferative assay, HeLa; type: cell-based; details: Homo sapiens, MTT assay, cancer cell line, mean of three independent experiments ± S.E.M., read-out: IC50 HeLa Cervical
# caspase-8 = assay: Caspase-8 colorimetric assay, HL-60; type: cell-based, human; details: HL-60 cells; data not showed
# Description: as §1
# [3] = test system: MCF-7 breast cancer cells; assay: Quantification of apoptosis (Annexin V-PI), MCF-7; type: cell-based, human; details: MCF-7 cells, 5 and 10 µM, 24 h
# Text: Apoptotic population of cancer cells was quantified by Annexin V-propidium iodide (PI) staining technique (Abcam, Cambridge, MA, USA) using a flow cytometer as per published technique.
# [4] = test system: CaCo-2 colon cancer cells; assay: MTT antiproliferative assay, CaCo-2; type: cell-based; details: Homo sapiens, Caco-2; MTT assay; cancer cell line; mean of three independent experiments ± S.E.M.; read-out: IC50 CaCo-2 Colon
# MCF-7 cancer cells = assay: Cell cycle analysis (PI, flow cytometry), MCF-7; type: cell-based, human; details: MCF-7 cells; 5 and 10 µM; 24 h
# Description: Cancer cells (1 × 10^6/ml) were treated with different concentrations of compound (5 and10 µM) for 24 h, fixed in cold 70% alcohol in PBS, washed, digested with DNase free RNase (400 µg/mL) at 37 °C for 45 min and stained with propidium iodide (10 µg/ml). Cells were analyzed for PI-DNA fluorescence by flow cytometerically using FACS CALIBUR (Becton Dickinson, Franklin Lakes, New Jersey, USA)[28]–[30]. The fluorescence intensity of subG0/GI cell fraction represents the dead cell population.
# Bcl-2 = assay: Quantification of Bcl-2 (ELISA), HL-60; type: cell-based, human; details: HL-60 cells; compared to untreated cells
# Description: The intracellular content of Bcl-2 was quantified using the human Bcl-2 ELISA kit (Abcam, Cambridge, MA, USA). For the sample preparation, the cells were lysed with 1X lysis buffer. After 1 h of incubation at room temperature, the sample was spun at 1,000 g for 15 min and the supernatant was used for Bcl-2 measurement. Briefly, 80 μL of sample diluent and 20 μL of sample were added into the wells coated with monoclonal antibody to human Bcl-2, and after that the wells were washed twice with the wash buffer. Next, 50 μL of biotin-conjugate were added into the wells. After 2 h of incubation at room temperature on a microplate shaker, 100 μL of streptavidin-horseradish peroxidase were added. The sample was incubated again for 1 h at room temperature on a microplate shaker. The solution was withdrawn and the wells were washed with 3X wash buffer. Immediately, 100 μL of TMB substrate solution were added. Finally, 100 μL of stop solution were added into each well to stop the enzyme reaction. The absorbance was read using an ELISA reader at 450 and 620 nm wavelengths. Bcl-2 protein concentration was determined from the standard protein graphic using the optical densities of the samples[32].
# HL-60 cells = assay: Rhodamine-123 mitochondrial membrane potential assay, HL-60; type: cell-based, human; details: compared to untreated cells
# cytosolic cytochrome c = assay: Cytosolic cytochrome c estimation (ELISA), HL-60; type: cell-based, human; details: HL-60 cells; cytosolic fraction
# Description: Cells were collected by centrifugation at 600 g for 5 min at 4 °C. The cell pellets were washed once with ice-cold PBS and resuspended in cytosol extraction buffer (20 mM Hepes-KOH, pH 7.5, 10 mM KCl, 1.5 mM MgCl2, 1 mM sodium EDTA, 1 mM sodium EGTA, 1 mM dithiothreitol and 0.1 mM PMSF) containing 250 mM sucrose on ice for 10 min. The cells were homogenized with the grinder on ice. Further, the homogenates were centrifuged at 700 g for 10 min at 4 °C. The supernatants were centrifuged at 10,000 × g for 30 min at 4 °C. Supernatant was collected as cytosolic fraction.
# Cytosolic cytochrome c levels were determined using quantitative sandwich enzyme immunoassay using microplate reader. Sample or standard (100 μL) was added into each well and incubated for 2 h at room temperature. The wells were washed several times with wash buffer. The plate was inverted and cleaned with paper toweling. Cytochrome c conjugate (200 μL) was added into each well and incubated for 2 h at room temperature. Wells were washed several times with wash buffer. Substrate solution (200 μL) was added into each well and incubated for 30 min at room temperature. Finally, stop solution (50 μL) was added into wells. The optical density (absorbance) of each well was determined using microplate reader at a 450 nm wavelength.
smiles,measurement,setting,value
"COc1cc(CO)ccc1OC1OC(COC(=O)c2ccc(F)cc2)C(O)C(O)C1O (stereo not drawn) [Compound 9f, (6-(4-(hydroxymethyl)-2-methoxyphenoxy)-tetrahydro-3,4,5-trihydroxy-2H-pyran-2-yl)methyl 4-fluorobenzoate]",effect on Bax protein levels,Bax,increase in Bax protein levels
same,IC50,[1],10.8 ± 0.42 µM
same,effect on caspase-3 activity,caspase-3,enhanced caspase-3 and -9 activities
same,IC50,[2],7.85 ± 0.57 µM
same,effect on caspase-8 activity,caspase-8,did not exhibit considerable effect
same,apoptotic cell population,[3],dose-dependent increase in the early apoptotic to late apoptotic population
same,IC50,[4],8.66 ± 0.72 µM
same,effect on cell cycle distribution,MCF-7 cancer cells,cell cycle arrest at G0/G1 phase
same,effect on Bcl-2 levels,Bcl-2,dose dependent inhibition of Bcl-2
same,mitochondria membrane potential loss,HL-60 cells; 5 µM,55.32 ± 2.14%
same,mitochondria membrane potential loss,HL-60 cells; 10 µM,65.56 ± 2.56%
same,effect on cytosolic cytochrome c levels,cytosolic cytochrome c,dose dependently increased
